According to the CheMixHub drug solubility set:

Experiment: xn = mol fraction of the nth substance listed, in the solute-free solvent

Oc1ccc(Cl)c2cccnc12 + CCOCCO + CCO
solubility (g/100 g solution)
Details	278.15 K	283.15 K	288.15 K	293.15 K	298.15 K	303.15 K	308.15 K	313.15 K	318.15 K	323.15 K
x2 = 0.1134	1.08	1.36	1.64	1.98	2.41	2.88	3.44	4.07	4.85	5.76
x2 = 0.2542	1.61	1.9	2.21	2.69	3.17	3.76	4.43	5.22	6.15	7.04
x2 = 0.434	2.17	2.57	2.99	3.57	4.14	4.77	5.59	6.57	7.64	8.85
x2 = 0.6716	2.81	3.34	3.83	4.5	5.16	6.07	6.97	8.03	9.21	10.5

O=C(O)c1cc([N+](=O)[O-])ccc1O + CN(C)C=O + O
solubility (g/100 g solution)
Details	278.15 K	283.15 K	288.15 K	293.15 K	298.15 K	303.15 K	308.15 K	313.15 K	318.15 K	323.15 K
x2 = 0.02666	0.182	0.224	0.277	0.352	0.437	0.534	0.645	0.775	0.924	1.1
x2 = 0.05806	0.538	0.682	0.832	1	1.26	1.54	1.85	2.17	2.56	3.01
x2 = 0.09556	1.2	1.45	1.81	2.17	2.65	3.12	3.74	4.38	5.16	6.11
x2 = 0.1412	2.33	2.71	3.27	3.93	4.66	5.53	6.45	7.43	8.54	9.8
x2 = 0.1978	3.78	4.51	5.41	6.42	7.5	8.84	10.3	11.9	13.5	15.4
x2 = 0.27	6.74	7.37	8.61	10.2	11.7	13.4	15.2	17.2	19.3	21.5
x2 = 0.3652	10.9	11.7	12.9	14.8	16.9	19	21.2	23.5	26.2	29.4
x2 = 0.4965	14.7	15.3	16.7	19.3	21.5	24	26.1	29.3	32.3	35.7
x2 = 0.6893	16.7	17.7	19.4	21.5	23.8	26.6	29	31.8	35.4	38.8
